Where two headings read alike, the source gives them in different places. One block for each compound: values may come before it.
What was measured:
[1] = system: Herpes Simplex Type II (Viral Strain HG52); assay: Herpes Simplex Type II Plaque Reduction Assay; type: cell-based; conditions: for EC50: HSV type II; for Plaque Count: replicate counts
Description: (§1) For testing the N-Bu-DNJ against HSV, the HSV Type II strain HG52 described by Timbury, J. Gen. Virol. 13, 373-376 (1971), and Davis et al., Analyst 110, 605-609 (1985), is useful. For testing against CMV, the prototype CMV ADl69 strain described, for example, by Tyms et al., J. Gen. Virol. 68, 1563-1573 (1987), and in U.S. Pat. No. 4,743,560, is useful. Another useful CMV strain is the Towne strain described by Glazer et al., Ann. Inter. Med. 91, 676-683 (1979).
(§2) Human embryo fibroblast cells (HEF) were grown in Eagles minimal essential medium supplemented with 7% fetal calf serum (FCS), 9 mM sodium bicarbonate and 7 mM HEPES buffer. In maintenance medium the supplements were adjusted to 2% FCS, 13 mM sodium bicarbonate and 14 mM HEPES. CMV, strain Towne, and HSV type II, strain […], were used in the following tests. CMV virus stocks were prepared and stored by technique as previously described by Tyms & Williamson, Nature 297, 690-691 […]. Herpes virus stocks were prepared and stored by technique as previously described by Davis et al., Analyst 110, 605-609 (1985). The HEF were human embryonic lung fibroblasts, strain MRC-5, as described by Tyms and Williamson, Nature 297, 690-691 (1982).
(§3) For plaque reduction assays, 24-well culture trays were seeded with HEF cells. Confluent monolayers were infected with virus to give initially about 100 plaque-forming-units (p.f.u.) per well. After a one hour absorption period the inocula were replaced by l.5ml of a maintenance medium incorporating 0.5% low gelling temperature agarose, supplemented with various concentrations of test compound. For tests with CMV, infected monolayers were fixed with 5% formalin in phosphate buffered saline (PBS) at 6-8 days post-infection and stained with 0.3% methylene blue after removal of the overlay; whereas, tests with HSV were conducted in the same manner but with the monolayer fixing at 2 days post infection. The mean plaque number was calculated from a multiple series of counts (e.g., duplicate, triplicate or quadruplicate), converted to a percentage of untreated controls and values plotted against the log10 drug concentration. The 50% effective dose (ED50) was determined from best line fits for the curves.
The mean plaque numbers determined on HEF cells exposed to varying amount of N-Bu-DNJ, N-Me-DNJ, N-He-DNJ, 2-deoxy-D-glucose and castanospermine were converted to percentage values (plaque count in presence of drug divided by mean value of untreated controls×100), and plotted as a function of drug concentration [drug (mM)].
The 50% effective dose (ED50)--that amount of drug needed to reduce plaque count by 50%--was calculated to give the following values: […]

HIV = conditions: Tyms et al., Lancet, 1987; cited from earlier work
[2] = system: Cytomegalovirus (Viral Strain Towne); assay: Cytomegalovirus Plaque Reduction Assay; type: cell-based; conditions: for Plaque Count: replicate counts
Description: as §1, §2, §3
In a similar manner, the Effective Dosage Values (ED50) were determined from the curves of FIG. 1. A least squares fit of the data of FIG. 1 to an equation of the form: y=mx+b gave the following values: […]
From these values, a 50% effective dose (ED50) was calculated to give the following values: […]

[3] = system: Cytomegalovirus (Viral Strain Towne); assay: Yield Reduction Assay against infections with CMV (Towne strain); type: cell-based; conditions: for activity at 500 µM / activity at 2000 µM: read-out: % Virus Control
Description: Antiviral activities of N-Bu-DNJ and comparative test compounds against infections with CMV (Towne strain) were also measured by the yield reduction assay as follows:
HEF cells (MRC-5) were infected at high multiplicity of infection (about one p.f.u. per cell) and incubated with various concentrations of the test compounds for 5 and 6 days post infection. The level of infectious virus shed into the extracellular fluid was determined at 5 and 6 days by plaque assays as described above, using serial dilution of extracellular fluid to bring readings on scale.
In Table VI, to calculate plaque-forming units (PFU) of the maintenance medium overlayering HEF cells, the plaque count at the most sensitive dilution (from Table V) was multiplied by dilution value and then by 5 (0.2 ml sample volumes used in test) to give PFU (per ml maintenance medium). (e.g. calculation of drug control: 31×10^3 ×5=1.6×10^5 PFU).

HEF cells (strain MRC-5) [4] = assay: HEF cell growth / monolayer appearance in HSV type II plaque reduction assay; type: cell-based, human
Description: as §3

HEF cells (strain MRC-5) [5] = type: cell-based, human
Description: Triplicate titer plates were seeded with human embryo fibroblast (HEF) cells (about 7.5×10^3 cells/well), and after 4 days of growth in the absence of presence of 2-deoxy-D-glucose and N-Bu-DNJ were counted and compared to a control without test compound.

[6] = Human betaherpesvirus 5, MRC5, 120 h
[7] = Human betaherpesvirus 5, MRC5, 144 h

SMILES: OC[C@H]1NC[C@H](O)[C@@H](O)[C@@H]1O [DNJ, 1,5-dideoxy-l,5-imino-Dglucitol]
block of HIV growth (in words) (HIV): found to block the growth of the AIDS-associated virus HIV

SMILES: O[C@H]1[C@H](O)[C@@H](O)CN2CC[C@H](O)[C@H]12 [Castanospermine, castanospermine, reference compound]
block of HIV growth (in words) (HIV): found to block the growth of the AIDS-associated virus HIV | EC50 ([2]; Human betaherpesvirus 5, HEF, CMV, calculated from least squares fit of FIG. 1, read-out: 50% effective dose (ED50)): 600 µM | activity at 250 µM ([2]; Human betaherpesvirus 5, HEF, Table IV, 0.25 mM, read-out: % Virus control): 81% | activity at 500 µM ([2]; Human betaherpesvirus 5, HEF, Table IV, 0.50 mM, read-out: % Virus control): 55% | activity at 1000 µM ([2]; Human betaherpesvirus 5, HEF, Table IV, 1.0 mM, read-out: % Virus control): 30% | activity at 2000 µM ([2]; Human betaherpesvirus 5, HEF, Table IV, 2.0 mM, read-out: % Virus control): 12% | Plaque Count Avg ([2]; Table IV, 0.25 mM): 166 | Plaque Count ([2]; Table IV, 0.25 mM): 146,191,184,144 | Plaque Count Avg ([2]; Table IV, 0.50 mM): 113 | Plaque Count ([2]; Table IV, 0.50 mM): 108,112,122,111 | Plaque Count Avg ([2]; Table IV, 1.0 mM): 61 | Plaque Count Avg ([2]; Table IV, 2.0 mM): 25 | activity at 250 µM ([1]; HEF, Table II, 0.25 mM, read-out: % Virus control): 56% | activity at 500 µM ([1]; HEF, Table II, 0.5 mM, read-out: % Virus control): 53% | activity at 1000 µM ([1]; HEF, Table II, 1.0 mM, read-out: % Virus control): 42% | activity at 2000 µM ([1]; HEF, Table II, 2.0 mM, read-out: % Virus control): 50% | activity at 4000 µM ([1]; HEF, Table II, 4.0 mM, read-out: % Virus control): 36% | Plaque Count Avg ([1]; Table II, 0.25 mM): 50 | Plaque Count ([1]; Table II, 0.25 mM): 46,54 | Plaque Count Avg ([1]; Table II, 0.5 mM): 48 | Plaque Count ([1]; Table II, 0.5 mM): 52,44 | Plaque Count Avg ([1]; Table II, 1.0 mM): 38 | Plaque Count ([1]; Table II, 1.0 mM): 21,55 | Plaque Count Avg ([1]; Table II, 2.0 mM): 45 | Plaque Count ([1]; Table II, 2.0 mM): 61,28 | Plaque Count Avg ([1]; Table II, 4.0 mM): 32 | Plaque Count ([1]; Table II, 4.0 mM): 33,32 | PFU ([3]; 0.5 mM, 5 days HEF growth): 2.1 × 10^4 PFU (per ml maintenance medium | PFU ([3]; 0.5 mM, 6 days HEF growth): 2.3 × 10^4 PFU (per ml maintenance medium | PFU ([3]; 2.0 mM, 5 days HEF growth): 2.3 × 10^3 PFU (per ml maintenance medium | PFU ([3]; 2.0 mM, 6 days HEF growth): 1.8 × 10^3 PFU (per ml maintenance medium | activity at 500 µM [3, 6]: 13% | activity at 2000 µM [3, 6]: 1.4% | activity at 500 µM [3, 7]: 6.2% | activity at 2000 µM [3, 7]: 0.48%

SMILES: O=CC[C@@H](O)[C@H](O)[C@H](O)CO [2-Deoxy-D-glucose, 2-deoxy-D-glucose, reference compound]
inhibitory effect on herpesvirus type II (in words) ([1]; 2.5 mM): no inhibitory effect was observed | activity at 2500 µM ([1]; HEF, Table II, 2.5 mM, read-out: % Virus control): ≥ 100% | activity at 5000 µM ([1]; HEF, Table II, 5.0 mM, read-out: % Virus control): 77% | Plaque Count Avg ([1]; Table II, 2.5 mM): 91 | Plaque Count ([1]; Table II, 2.5 mM): 94,88 | Plaque Count Avg ([1]; Table II, 5.0 mM): 69 | Plaque Count ([1]; Table II, 5.0 mM): 61,76 | inhibitory effect on growth of normal cells (in words) (HEF cells (strain MRC-5) [5]): substantially inhibits the growth

Second part, led by results:

EC50 ([1]; HEF, amount of drug needed to reduce plaque count by 50%, read-out: 50% effective dose (ED50)): 2800 µM
SMILES: CN1C[C@H](O)[C@@H](O)[C@H](O)[C@H]1CO [N-Me-DNJ, Nmethyl deoxynojirimycin]
antiviral activity against HSV type II (in words) [1]: substantially reduce herpesvirus type II infection of HEF cells | activity at 280 µM ([1]; HEF, Table I, 0.28 mM, read-out: % Virus Control): ≥ 100% | activity at 560 µM ([1]; HEF, Table I, 0.56 mM, read-out: % Virus Control): 99% | activity at 1120 µM ([1]; HEF, Table I, 1.12 mM, read-out: % Virus Control): 88% | activity at 2240 µM ([1]; HEF, Table I, 2.24 mM, read-out: % Virus Control): 50% | activity at 4480 µM ([1]; HEF, Table I, 4.48 mM, read-out: % Virus Control): 18% | Plaque Count Avg ([1]; Table I, 0.28 mM): 84 | Plaque Count ([1]; Table I, 0.28 mM): 72,95 | Plaque Count Avg ([1]; Table I, 0.56 mM): 77 | Plaque Count ([1]; Table I, 0.56 mM): 79,74 | Plaque Count Avg ([1]; Table I, 1.12 mM): 69 | Plaque Count ([1]; Table I, 1.12 mM): 63,74 | Plaque Count Avg ([1]; Table I, 2.24 mM): 39 | Plaque Count ([1]; Table I, 2.24 mM): 48,29 | Plaque Count Avg ([1]; Table I, 4.48 mM): 14 | Plaque Count ([1]; Table I, 4.48 mM): 9,19

EC50 ([1]; HEF, tested up to 1.1 mM, read-out: estimated ED50): ~250 µM
SMILES: CCCCCCN1C[C@H](O)[C@@H](O)[C@H](O)[C@H]1CO [N-He-DNJ, Nhexyl deoxynojirimycin]
HEF cell growth (in words) (HEF cells (strain MRC-5) [4]; 0.56 and 1.12 mM): grew normally | appearance of HEF cell monolayers (in words) (HEF cells (strain MRC-5) [4]; 2.25 and 4.5 mM): looked thin | cell growth (in words) (HEF cells (strain MRC-5) [4]; higher concentrations (above 1.1 mM)): cell growth also was retarded | activity at 560 µM ([1]; HEF, Table III, 0.56 mM, read-out: % Virus Control): 31.4% | activity at 1120 µM ([1]; HEF, Table III, 1.12 mM, read-out: % Virus Control): 15.7% | Plaque Count Avg ([1]; Table III, 0.56 mM): 16 | Plaque Count Avg ([1]; Table III, 1.12 mM): 8 | Plaque Count ([1]; Table III, 2.25 mM): trace | Plaque Count ([1]; Table III, 4.5 mM): none | size of plaques compared to control test (in words) ([1]; Table III, 2.25 and 4.5 mM): significantly reduced | antiviral activity against HSV type II (in words) ([1]; up to 1.1 mM): substantial antiviral activity

From patent publication US4957926A, “Method of treating herpesviruses” (priority 1988, dated 1990)
